Results reported in ChEMBL document CHEMBL4177730, “Rational modification of semaxanib and sunitinib for developing a tumor growth inhibitor targeting ATP binding site of tyrosine kinase” (2018).
The source made the active and inactive calls. No cut-off for these calls is given here.

Legend:
[1] = test system: HL-60(TB); experiment: Growth inhibition of human HL-60(TB) cells after 48 hrs by sulforhodamine B assay; type: functional; conditions: HL-60, 48 h
[2] = test system: MOLT-4; experiment: Growth inhibition of human MOLT4 cells after 48 hrs by sulforhodamine B assay; type: functional; conditions: MOLT-4, 48 h
[3] = test system: SR; experiment: Growth inhibition of human SR cells after 48 hrs by sulforhodamine B assay; type: functional
[4] = test system: EKVX; experiment: Growth inhibition of human EKVX cells after 48 hrs by sulforhodamine B assay; type: functional
[5] = test system: HOP-92; experiment: Growth inhibition of human HOP92 cells after 48 hrs by sulforhodamine B assay; type: functional; conditions: HOP-92, 48 h
[6] = test system: NCI-H226; experiment: Growth inhibition of human NCI-H226 cells after 48 hrs by sulforhodamine B assay; type: functional; conditions: NCI-H226, 48 h
[7] = test system: NCI-H322M; experiment: Growth inhibition of human NCI-H322M cells after 48 hrs by sulforhodamine B assay; type: functional
[8] = test system: NCI-H460; experiment: Growth inhibition of human NCI-H460 cells after 48 hrs by sulforhodamine B assay; type: functional; conditions: NCI-H460, 48 h
[9] = test system: NCI-H522; experiment: Growth inhibition of human NCI-H522 cells after 48 hrs by sulforhodamine B assay; type: functional; conditions: NCI-H522, 48 h
[10] = test system: COLO 205; experiment: Growth inhibition of human COLO205 cells after 48 hrs by sulforhodamine B assay; type: functional; conditions: COLO 205, 48 h
[11] = test system: HCT-15; experiment: Growth inhibition of human HCT15 cells after 48 hrs by sulforhodamine B assay; type: functional; conditions: HCT-15, 48 h
[12] = test system: HT-29; experiment: Growth inhibition of human HT-29 cells after 48 hrs by sulforhodamine B assay; type: functional; conditions: HT-29, 48 h
[13] = test system: SF-295; experiment: Growth inhibition of human SF295 cells after 48 hrs by sulforhodamine B assay; type: functional; conditions: SF-295, 48 h
[14] = test system: SF-539; experiment: Growth inhibition of human SF539 cells after 48 hrs by sulforhodamine B assay; type: functional; conditions: SF-539, 48 h
[15] = test system: SNB-19; experiment: Growth inhibition of human SNB19 cells after 48 hrs by sulforhodamine B assay; type: functional; conditions: SNB-19, 48 h
[16] = test system: U-251; experiment: Growth inhibition of human U251 cells after 48 hrs by sulforhodamine B assay; type: functional; conditions: U-251, 48 h
[17] = test system: MDA-MB-435; experiment: Growth inhibition of human MDA-MB-435 cells after 48 hrs by sulforhodamine B assay; type: functional; conditions: MDA-MB-435, 48 h
[18] = test system: UACC-62; experiment: Growth inhibition of human UACC62 cells after 48 hrs by sulforhodamine B assay; type: functional; conditions: UACC-62, 48 h
[19] = test system: OVCAR-3; experiment: Growth inhibition of human OVCAR3 cells after 48 hrs by sulforhodamine B assay; type: functional; conditions: OVCAR-3, 48 h
[20] = test system: SK-OV-3; experiment: Growth inhibition of human SKOV3 cells after 48 hrs by sulforhodamine B assay; type: functional; conditions: SK-OV-3, 48 h
[21] = test system: RXF 393; experiment: Growth inhibition of human RXF393 cells after 48 hrs by sulforhodamine B assay; type: functional; conditions: RXF 393, 48 h
[22] = test system: EKVX; experiment: Growth inhibition of human EKVX cells at 10 uM after 48 hrs by sulforhodamine B assay; type: functional, cell-based
[23] = test system: NCI-H23; experiment: Growth inhibition of human NCI-H23 cells at 10 uM after 48 hrs by sulforhodamine B assay; type: functional, cell-based
[24] = test system: NCI-H322M; experiment: Growth inhibition of human NCI-H322M cells at 10 uM after 48 hrs by sulforhodamine B assay; type: functional, cell-based
[25] = test system: COLO 205; experiment: Growth inhibition of human COLO205 cells at 10 uM after 48 hrs by sulforhodamine B assay; type: functional, cell-based
[26] = test system: HCT-15; experiment: Growth inhibition of human HCT15 cells at 10 uM after 48 hrs by sulforhodamine B assay; type: functional, cell-based
[27] = test system: U-251; experiment: Growth inhibition of human U251 cells at 10 uM after 48 hrs by sulforhodamine B assay; type: functional, cell-based
[28] = test system: M14; experiment: Growth inhibition of human M14 cells at 10 uM after 48 hrs by sulforhodamine B assay; type: functional, cell-based
[29] = test system: SK-MEL-2; experiment: Growth inhibition of human SK-MEL-2 cells at 10 uM after 48 hrs by sulforhodamine B assay; type: functional, cell-based
[30] = test system: SK-MEL-28; experiment: Growth inhibition of human SK-MEL-28 cells at 10 uM after 48 hrs by sulforhodamine B assay; type: functional, cell-based
[31] = test system: SK-MEL-5; experiment: Growth inhibition of human SK-MEL-5 cells at 10 uM after 48 hrs by sulforhodamine B assay; type: functional, cell-based
[32] = test system: IGROV-1; experiment: Growth inhibition of human IGROV1 cells at 10 uM after 48 hrs by sulforhodamine B assay; type: functional, cell-based
[33] = test system: OVCAR-3; experiment: Growth inhibition of human OVCAR3 cells at 10 uM after 48 hrs by sulforhodamine B assay; type: functional, cell-based
[34] = test system: OVCAR-5; experiment: Growth inhibition of human OVCAR5 cells at 10 uM after 48 hrs by sulforhodamine B assay; type: functional, cell-based
[35] = test system: 786-0; experiment: Growth inhibition of human 786-0 cells at 10 uM after 48 hrs by sulforhodamine B assay; type: functional, cell-based
[36] = test system: ACHN; experiment: Growth inhibition of human ACHN cells at 10 uM after 48 hrs by sulforhodamine B assay; type: functional, cell-based
[37] = test system: CAKI-1; experiment: Growth inhibition of human CAKI-1 cells at 10 uM after 48 hrs by sulforhodamine B assay; type: functional, cell-based
[38] = test system: SN12C; experiment: Growth inhibition of human SN12C cells at 10 uM after 48 hrs by sulforhodamine B assay; type: functional, cell-based
[39] = test system: TK-10; experiment: Growth inhibition of human TK10 cells at 10 uM after 48 hrs by sulforhodamine B assay; type: functional, cell-based
[40] = test system: PC-3; experiment: Growth inhibition of human PC3 cells at 10 uM after 48 hrs by sulforhodamine B assay; type: functional, cell-based
[41] = read-out: LC50 (the source's name)

## O=C1/C(=C\c2cccn2Cc2ccccc2)c2ccccc2N1c1c(Cl)cccc1Cl
[1]
  GI50: > 100 µM
  TGI: > 100 µM
[1]; [41]
  CC50: > 100 µM
[2]
  GI50: > 100 µM
  TGI: > 100 µM
[2]; [41]
  CC50: > 100 µM
[3]
  GI50: > 100 µM
  TGI: > 100 µM
[3]; [41]
  CC50: > 100 µM
[4]
  GI50: 0.41 µM
  TGI: 7.94 µM
[4]; [41]
  CC50: > 100 µM
[5]
  GI50: 0.97 µM
  TGI: 17.8 µM
[5]; [41]
  CC50: > 100 µM
[6]
  GI50: 6.16 µM
  TGI: > 100 µM
[6]; [41]
  CC50: > 100 µM
[7]
  GI50: 14.8 µM
  TGI: > 100 µM
[7]; [41]
  CC50: > 100 µM
[8]
  GI50: 4.16 µM
  TGI: > 100 µM
[8]; [41]
  CC50: > 100 µM
[9]
  GI50: > 100 µM
  TGI: > 100 µM
[9]; [41]
  CC50: > 100 µM
[10]
  GI50: 1.04 µM
  TGI: 9.33 µM
[10]; [41]
  CC50: > 100 µM
[11]
  GI50: 0.37 µM
  TGI: > 100 µM
[11]; [41]
  CC50: > 100 µM
[12]
  GI50: 6.45 µM
  TGI: > 100 µM
[12]; [41]
  CC50: > 100 µM
[13]
  GI50: > 100 µM
  TGI: > 100 µM
[13]; [41]
  CC50: > 100 µM
[14]
  GI50: > 100 µM
  TGI: > 100 µM
[14]; [41]
  CC50: > 100 µM
[15]
  GI50: > 100 µM
  TGI: > 100 µM
[15]; [41]
  CC50: > 100 µM
[16]
  GI50: > 100 µM
  TGI: > 100 µM
[16]; [41]
  CC50: > 100 µM
[17]
  GI50: > 100 µM
  TGI: > 100 µM
[17]; [41]
  CC50: > 100 µM
[18]
  GI50: 2.08 µM
  TGI: > 100 µM
[18]; [41]
  CC50: > 100 µM
[19]
  GI50: 0.74 µM
  TGI: > 100 µM
[19]; [41]
  CC50: > 100 µM
[20]
  GI50: > 100 µM
  TGI: > 100 µM
[20]; [41]
  CC50: > 100 µM
[21]
  GI50: > 100 µM
  TGI: > 100 µM
[21]; [41]
  CC50: > 100 µM
[22]
  growth inhibition (GI): Active
[23]
  growth inhibition (GI): Active
[24]
  growth inhibition (GI): Active
[25]
  growth inhibition (GI): Active
[26]
  growth inhibition (GI): Active
[27]
  growth inhibition (GI): Active
[28]
  growth inhibition (GI): Active
[29]
  growth inhibition (GI): Active
[30]
  growth inhibition (GI): Active
[31]
  growth inhibition (GI): Active
[32]
  growth inhibition (GI): Active
[33]
  growth inhibition (GI): Active
[34]
  growth inhibition (GI): Active
[35]
  growth inhibition (GI): Active
[36]
  growth inhibition (GI): Active
[37]
  growth inhibition (GI): Active
[38]
  growth inhibition (GI): Active
[39]
  growth inhibition (GI): Active
[40]
  growth inhibition (GI): Active
